Data taken from patent US6369070B1, “Methods for inhibiting mrp1” (Eli Lilly and Company, priority 1998, dated 2002).

Experiments:
MRP1 = biological target: T1, MRP1 (Homo sapiens, UniProt P33527); assay: Reversal of MRP1-mediated doxorubicin resistance in HL60/ADR cells; assay type: cell-based; settings: HL60/ADR cells (printed EL60/ADR), oncolytic alone at the tested concentration
T1 construct: HL60/ADR and HL60/VCR are continuous cell lines, which were selected for doxorubicin and vincristine resistance respectively; endogenous in cells; host or cells: HL60/ADR (doxorubicin-selected HL60 human acute myeloblastic leukemia cells)
Protocol: (§1) Assay for Reversal of MRP1-Mediated Doxorubicin Resistance and MDR1-Mediated Vincristine Resistance: HL60/ADR and HL60/VCR are continuous cell lines, which were selected for doxorubicin and vincristine resistance respectively by culturing HL60, a human acute myeloblastic leukemia cell line, in increasing concentrations of doxorubicin or vincristine until a highly resistant variant was attained.
(§2) HL60/ADR and HL60/VCR cells were grown in RPMI 1640 (Gibco) containing […] (FBS) and 250 μg/ml GENTAMICIN™ (Sigma). Cells were harvested; washed twice with assay medium (same as culture media); counted; and diluted to 2×10^5 cells/ml in assay medium. Fifty microliters of cells were aliquoted into wells of a 96 well tissue culture plate. One column of each 96 well plate served as a negative control and received assay medium containing no cells.
(§3) Test compounds and reference compounds were dissolved in dimethyl sulfoxide (DMSO) at a concentration of 5 mM. Samples were diluted to 20 μM in assay medium and 25 μl of each test compound was added to 6 wells. Assay standards were run in quadruplicate. Twenty-five microliters of 0.4% DMSO was added to four wells as a solvent control.

MDR1 = biological target: T2, MDR1 (Homo sapiens, UniProt P08183); assay: Reversal of MDR1-mediated vincristine resistance in HL60/VCR cells; assay type: cell-based; settings: oncolytic alone at the tested concentration
T2 construct: HL60/ADR and HL60/VCR are continuous cell lines, which were selected for doxorubicin and vincristine resistance respectively; endogenous in cells; host or cells: HL60/VCR (vincristine-selected HL60 human acute myeloblastic leukemia cells)
Protocol: as §1, §2, §3

T1 sequence (P33527 whole entry): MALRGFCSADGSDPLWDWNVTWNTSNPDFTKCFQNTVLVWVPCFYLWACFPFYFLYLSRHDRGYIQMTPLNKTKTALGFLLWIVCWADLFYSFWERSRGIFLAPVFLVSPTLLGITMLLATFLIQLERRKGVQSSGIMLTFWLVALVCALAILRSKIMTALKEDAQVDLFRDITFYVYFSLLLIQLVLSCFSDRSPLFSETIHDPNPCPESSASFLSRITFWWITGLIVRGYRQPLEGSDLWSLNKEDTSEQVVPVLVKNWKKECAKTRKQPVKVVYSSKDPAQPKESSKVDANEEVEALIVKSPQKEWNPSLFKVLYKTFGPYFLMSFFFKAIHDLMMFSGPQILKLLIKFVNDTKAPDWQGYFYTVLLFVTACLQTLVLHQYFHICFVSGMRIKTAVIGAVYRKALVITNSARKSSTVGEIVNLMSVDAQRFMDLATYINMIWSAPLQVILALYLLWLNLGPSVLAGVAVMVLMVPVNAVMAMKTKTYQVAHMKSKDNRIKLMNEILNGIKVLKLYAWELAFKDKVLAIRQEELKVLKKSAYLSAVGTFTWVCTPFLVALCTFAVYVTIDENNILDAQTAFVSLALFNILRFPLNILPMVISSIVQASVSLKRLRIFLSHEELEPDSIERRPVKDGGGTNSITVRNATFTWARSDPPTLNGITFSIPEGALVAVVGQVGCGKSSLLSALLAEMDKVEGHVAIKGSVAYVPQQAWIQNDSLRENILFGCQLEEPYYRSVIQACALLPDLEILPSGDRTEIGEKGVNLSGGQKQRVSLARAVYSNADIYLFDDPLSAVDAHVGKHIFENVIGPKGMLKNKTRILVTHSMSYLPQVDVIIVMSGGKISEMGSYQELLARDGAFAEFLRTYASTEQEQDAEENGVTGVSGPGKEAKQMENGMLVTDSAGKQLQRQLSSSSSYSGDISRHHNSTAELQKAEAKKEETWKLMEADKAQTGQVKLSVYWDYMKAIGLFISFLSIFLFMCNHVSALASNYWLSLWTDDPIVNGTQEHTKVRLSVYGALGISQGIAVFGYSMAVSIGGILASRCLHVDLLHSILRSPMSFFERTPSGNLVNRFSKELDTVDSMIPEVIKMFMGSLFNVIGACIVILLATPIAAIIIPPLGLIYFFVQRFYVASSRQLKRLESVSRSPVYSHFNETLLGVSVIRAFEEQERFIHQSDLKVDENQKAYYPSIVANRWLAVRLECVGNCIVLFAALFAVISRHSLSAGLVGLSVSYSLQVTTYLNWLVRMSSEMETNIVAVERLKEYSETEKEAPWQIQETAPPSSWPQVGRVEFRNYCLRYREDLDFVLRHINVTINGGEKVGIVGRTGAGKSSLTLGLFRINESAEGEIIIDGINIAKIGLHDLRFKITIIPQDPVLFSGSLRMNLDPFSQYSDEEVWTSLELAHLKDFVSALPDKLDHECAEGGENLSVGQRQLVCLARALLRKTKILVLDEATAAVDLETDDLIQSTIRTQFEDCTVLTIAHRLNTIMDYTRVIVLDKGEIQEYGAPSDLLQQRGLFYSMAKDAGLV
T2 sequence (P08183 whole entry): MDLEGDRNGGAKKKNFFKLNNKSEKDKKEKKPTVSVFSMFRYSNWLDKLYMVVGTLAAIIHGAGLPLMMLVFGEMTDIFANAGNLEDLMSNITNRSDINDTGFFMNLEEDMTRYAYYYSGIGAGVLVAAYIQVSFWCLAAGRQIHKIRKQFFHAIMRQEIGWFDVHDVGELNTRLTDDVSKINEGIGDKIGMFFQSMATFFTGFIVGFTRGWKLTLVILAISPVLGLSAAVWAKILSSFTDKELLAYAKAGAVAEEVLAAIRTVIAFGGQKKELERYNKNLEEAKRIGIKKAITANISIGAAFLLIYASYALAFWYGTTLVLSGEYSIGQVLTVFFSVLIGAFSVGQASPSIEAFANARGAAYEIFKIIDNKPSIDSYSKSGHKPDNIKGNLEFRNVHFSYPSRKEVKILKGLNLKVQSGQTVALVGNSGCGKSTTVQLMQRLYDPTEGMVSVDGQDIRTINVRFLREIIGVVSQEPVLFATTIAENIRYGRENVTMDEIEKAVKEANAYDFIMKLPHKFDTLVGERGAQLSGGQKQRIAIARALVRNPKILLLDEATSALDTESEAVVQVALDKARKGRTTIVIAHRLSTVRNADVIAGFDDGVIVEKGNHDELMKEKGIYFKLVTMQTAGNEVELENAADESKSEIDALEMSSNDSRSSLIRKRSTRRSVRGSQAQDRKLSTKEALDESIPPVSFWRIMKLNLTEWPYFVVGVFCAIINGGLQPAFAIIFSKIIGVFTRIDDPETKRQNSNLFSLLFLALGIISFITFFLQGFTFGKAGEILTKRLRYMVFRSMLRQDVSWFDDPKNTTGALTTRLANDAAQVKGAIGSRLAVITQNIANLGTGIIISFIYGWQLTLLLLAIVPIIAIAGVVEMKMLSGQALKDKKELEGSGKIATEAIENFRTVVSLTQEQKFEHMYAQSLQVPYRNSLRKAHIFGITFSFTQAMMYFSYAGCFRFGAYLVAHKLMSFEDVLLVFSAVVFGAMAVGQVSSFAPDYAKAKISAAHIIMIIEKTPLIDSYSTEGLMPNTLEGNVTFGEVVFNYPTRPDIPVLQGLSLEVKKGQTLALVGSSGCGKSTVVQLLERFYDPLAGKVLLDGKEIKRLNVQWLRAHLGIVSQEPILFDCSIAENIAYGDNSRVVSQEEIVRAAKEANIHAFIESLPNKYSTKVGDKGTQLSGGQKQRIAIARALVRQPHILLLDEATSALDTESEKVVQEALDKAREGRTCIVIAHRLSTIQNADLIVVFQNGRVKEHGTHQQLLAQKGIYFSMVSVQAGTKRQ

COc1cccc2c1C(=O)c1c(O)c3c(c(O)c1C2=O)C[C@@](O)(C(=O)CO)C[C@@H]3O[C@H]1C[C@H](N)[C@H](O)[C@H](C)O1 [doxorubicin]
inhibition of cell growth by the oncolytic alone (MRP1): does not usually inhibit the growth | inhibition of cell growth by the oncolytic alone (MDR1): does not usually inhibit the growth
